Experimental data reported in patent US10487093B2, “Heterocyclic compounds, in particular 2-oxo-4,4,5,5,6,6,7,7-octahydrobenzoxazole derivatives, and their use as antibacterial compounds” (priority 2016, dated 2019).
Converted amounts (≈) assume the structure as drawn. Like-named read-outs stand apart in the source and are kept apart here.

Columns and labels:
Type in all cases: cell-based
[1] = system: strains of Prevotella melaninogenica; assay: MIC against anaerobes, agar dilution (CLSI), clinical isolates
[2] = system: Bacteroides thetaiotaomicron ATCC 29741; assay: microbe, parasite or virus in culture; details: ATCC29741, agar dilution, Brucella blood agar, 35° C., 48 h, anaerobic conditions, read-out: MIC, B. thetaiotaomicron ATCC
[3] = system: strains of Clostridium perfringens; assay: microbe, parasite or virus in culture
[4] = system: strains of Propionibacterium acnes; assay: MIC against anaerobes, agar dilution (CLSI), clinical isolates; details: Cutibacterium acnes
[5] = system: strains of Finegoldia magna; assay: as above; details: Finegoldia magna, read-out: MIC
[6] = system: Clostridium difficile ATCC 700057; assay: MIC against anaerobes, agar dilution (CLSI), reference strain; details: Clostridioides difficile, ATCC700057, 48 h, read-out: MIC, C. difficile ATCC 700057
[7] = system: Bacteroides fragilis ATCC 25285; assay: as above; details: ATCC25285, agar dilution, Brucella blood agar, 35° C., 48 h, anaerobic conditions, read-out: MIC, B. fragilis ATCC 25285
[8] = system: strains of Bacteroides thetaiotaomicron; assay: microbe, parasite or virus in culture

Structure (SMILES): Cc1ccc2ncc(=O)n(CCN[C@H]3CC[C@H]4[C@@H](C3)OC(=O)N4c3ccc4c(n3)NC(=O)CO4)c2c1 [Compound 27, 1-(2-{[(3aS,6S,7aR)-2-oxo-3-{3-oxo-2H,3H,4H-pyrido[3,2-b][1,4]oxazin-6-yl}-octahydro-1,3-benzoxazol-6-yl]amino}ethyl)-7-methyl-1,2-dihydroquinoxalin-2-one]
- MIC ([1]; Prevotella melaninogenica strain 1): 1 to 4 µg/mL (≈ 2.04 to 8.15 µM)
- MIC ([1]; Prevotella melaninogenica strain 2): < 1 µg/mL
- MIC ([1]; Prevotella melaninogenica strain 3): < 1 µg/mL
- MIC ([1]; Prevotella melaninogenica strain 4): < 1 µg/mL
- MIC ([1]; Prevotella melaninogenica strain 5): < 1 µg/mL
- MIC ([1]; Prevotella melaninogenica strain 6): < 1 µg/mL
- MIC ([1]; Prevotella melaninogenica strain 7): < 1 µg/mL
- MIC ([1]; Prevotella melaninogenica strain 8): < 1 µg/mL
- MIC ([1]; Prevotella melaninogenica strain 9): < 1 µg/mL
- MIC ([1]; Prevotella melaninogenica strain 10): 1 to 4 µg/mL (≈ 2.04 to 8.15 µM)
- MIC ([1]; Prevotella melaninogenica strain 11): < 1 µg/mL
- MIC [2]: 1 to 4 µg/mL (≈ 2.04 to 8.15 µM)
- MIC ([3]; Clostridium perfringens strain 1): < 1 µg/mL
- MIC ([3]; Clostridium perfringens strain 2): < 1 µg/mL
- MIC ([3]; Clostridium perfringens strain 3): < 1 µg/mL
- MIC ([3]; Clostridium perfringens strain 4): < 1 µg/mL
- MIC ([3]; Clostridium perfringens strain 5): < 1 µg/mL
- MIC ([3]; Clostridium perfringens strain 6): < 1 µg/mL
- MIC ([3]; Clostridium perfringens strain 7): < 1 µg/mL
- MIC ([3]; Clostridium perfringens strain 8): 1 to 4 µg/mL (≈ 2.04 to 8.15 µM)
- MIC ([3]; Clostridium perfringens strain 9): < 1 µg/mL
- MIC ([3]; Clostridium perfringens strain 10): < 1 µg/mL
- MIC ([3]; Clostridium perfringens strain 11): < 1 µg/mL
- MIC ([4]; Propionibacterium acnes strain 1): 1 to 4 µg/mL (≈ 2.04 to 8.15 µM)
- MIC ([4]; Propionibacterium acnes strain 2): < 1 µg/mL
- MIC ([4]; Propionibacterium acnes strain 3): < 1 µg/mL
- MIC ([4]; Propionibacterium acnes strain 4): < 1 µg/mL
- MIC ([4]; Propionibacterium acnes strain 5): 1 to 4 µg/mL (≈ 2.04 to 8.15 µM)
- MIC ([4]; Propionibacterium acnes strain 6): 1 to 4 µg/mL (≈ 2.04 to 8.15 µM)
- MIC ([4]; Propionibacterium acnes strain 7): 1 to 4 µg/mL (≈ 2.04 to 8.15 µM)
- MIC ([4]; Propionibacterium acnes strain 8): 1 to 4 µg/mL (≈ 2.04 to 8.15 µM)
- MIC ([4]; Propionibacterium acnes strain 9): 1 to 4 µg/mL (≈ 2.04 to 8.15 µM)
- MIC ([4]; Propionibacterium acnes strain 10): 1 to 4 µg/mL (≈ 2.04 to 8.15 µM)
- MIC ([4]; Propionibacterium acnes strain 11): < 1 µg/mL
- MIC ([4]; Propionibacterium acnes strain 12): 1 to 4 µg/mL (≈ 2.04 to 8.15 µM)
- MIC ([5]; Finegoldia magna strain 1): 1 to 4 µg/mL (≈ 2.04 to 8.15 µM)
- MIC ([5]; Finegoldia magna strain 2): 16 to 64 µg/mL (≈ 32.6 to 130 µM)
- MIC ([5]; Finegoldia magna strain 3): 1 to 4 µg/mL (≈ 2.04 to 8.15 µM)
- MIC ([5]; Finegoldia magna strain 4): 16 to 64 µg/mL (≈ 32.6 to 130 µM)
- MIC ([5]; Finegoldia magna strain 5): 16 to 64 µg/mL (≈ 32.6 to 130 µM)
- MIC ([5]; Finegoldia magna strain 6): 16 to 64 µg/mL (≈ 32.6 to 130 µM)
- MIC ([5]; Finegoldia magna strain 7): > 64 µg/mL
- MIC ([5]; Finegoldia magna strain 8): 1 to 4 µg/mL (≈ 2.04 to 8.15 µM)
- MIC ([5]; Finegoldia magna strain 9): > 64 µg/mL
- MIC ([5]; Finegoldia magna strain 10): 4 to 16 µg/mL (≈ 8.15 to 32.6 µM)
- MIC ([5]; Finegoldia magna strain 11): 16 to 64 µg/mL (≈ 32.6 to 130 µM)
- MIC ([5]; Finegoldia magna strain 12): 16 to 64 µg/mL (≈ 32.6 to 130 µM)
- MIC [6]: 1 to 4 µg/mL (≈ 2.04 to 8.15 µM)
- MIC [7]: 4 to 16 µg/mL (≈ 8.15 to 32.6 µM)
- MIC ([8]; Bacteroides thetaiotaomicron strain 1, read-out: MIC): 4 to 16 µg/mL (≈ 8.15 to 32.6 µM)
- MIC ([8]; Bacteroides thetaiotaomicron strain 2, read-out: MIC): 1 to 4 µg/mL (≈ 2.04 to 8.15 µM)
- MIC ([8]; Bacteroides thetaiotaomicron strain 3, read-out: MIC): 4 to 16 µg/mL (≈ 8.15 to 32.6 µM)
- MIC ([8]; Bacteroides thetaiotaomicron strain 4, read-out: MIC): 4 to 16 µg/mL (≈ 8.15 to 32.6 µM)
- MIC ([8]; Bacteroides thetaiotaomicron strain 5, read-out: MIC): 1 to 4 µg/mL (≈ 2.04 to 8.15 µM)
- MIC ([8]; Bacteroides thetaiotaomicron strain 6, read-out: MIC): 4 to 16 µg/mL (≈ 8.15 to 32.6 µM)
- MIC ([8]; Bacteroides thetaiotaomicron strain 7, read-out: MIC): 4 to 16 µg/mL (≈ 8.15 to 32.6 µM)
- MIC ([8]; Bacteroides thetaiotaomicron strain 8, read-out: MIC): 1 to 4 µg/mL (≈ 2.04 to 8.15 µM)
- MIC ([8]; Bacteroides thetaiotaomicron strain 9, read-out: MIC): < 1 µg/mL
- MIC ([8]; Bacteroides thetaiotaomicron strain 10, read-out: MIC): 1 to 4 µg/mL (≈ 2.04 to 8.15 µM)
